Non-standard residues stand in square brackets, D forms with d. Residues, ends and D or L forms follow the SMILES beside them. *: point of attachment. Nle = CCCC[C@H](N)C(=O)O; Cbz = O=C(OCc1ccccc1)*
Experiments:
[1] = test system: hTERT; test: Ubiquitination of hTERT in H1299 cells (immunoprecipitation, anti-HA immunoblot); format: cell-based, human
Procedure: (§1) FIG. 2. hTERT is ubiquitinated prior to proteasome-mediated degradation. (A) H1299 cells were co-transfected with Flag-hTERT and HA-ubiquitin. Cells were either untreated or treated for 2 hours with 10 μg/ml ALLnN or 0.1 μM GA, or a combination of the two as specified above each lane. Immunoprecipitation was performed with anti-Flag antibody before probing with anti-hTERT or anti-HA antibodies as indicated besides each blot. Molecular weight markers are shown in kilodaltons. (B) H1299 cells co-transfected with Flag-hTERT and HA-ubiquitin were treated for 1 hour with the GA concentration indicated in the presence of 10 μM MG132. Immunoprecipitation was performed with anti-Flag antibody followed by immunoblotting using an anti-HA antibody probe. (C) H1299 cells co-transfected with Flag-hTERT and HA-ubiquitin were either untreated or treated for 2 hours with 10 μg/ml ALLnN as specified above each lane. Proteins were immunoprecipated with anti-Flag antibody followed by immunoblotting using an anti-HA antibody probe.
FIG. 4. MKRN1 functions as an E3 ubiquitin-ligase for hTERT in vitro and in vivo. (A) HA-tagged hTERT (residues 946-1132) was incubated MKRN1 or mutants in the presence of E1, E2, His6-ubiquitin (6×His tag disclosed as SEQ ID NO: 7). Samples were resolved by 6% SDS-PAGE and analyzed by immunoblotting with an anti-HA antibody probe. (B) H1299 cells were co-transfected with Flag-hTERT, HA-ubiquitin, MKRN1-V5, and together with either MKRN1^H307E-V5 or MKRN1^Δ^C-V5 as specified. Cells were untreated or treated with 10 μM MG132 for 2 hours. Anti-Flag immunoprecipitates and cell lysates were analyzed by immunoblotting with anti-HA antibody and anti-V5 antibody probes, respectively. (C) H1299 cells co-transfected with Flag-hTERT and HA-ubiquitin, and together with or without MKRN1-V5 as indicated were treated with 10 μM MG132 for the indicated times. Anti-Flag immunoprecipitates and cell lysates were analyzed by immunoblotting with anti-HA antibody and anti-V5 antibody probes, respectively.
H1299 cells were transiently transfected with the expression vectors indicated in the figure legends using TransFast transfection reagent (Promega, Madison, Wis.) according to the manufacturer's instructions. Cells were lysed with buffer containing 0.5% NP-40, 50 mM Tris-HCl (pH 7.5), 150 mM NaCl, 2 mM phenyl methylsulphonyl fluoride. After centrifugation at 12,000 rpm for 30 min, the supernatants were immunoprecipitated for 2 hours with anti-Flag (Sigma, St. Louis, Mo.) or anti-HA (Santa Cruz biotechnology, Santa Cruz, Calif.) antibodies and then incubated with Sepharose beads conjugated to Protein G (Amersham Biosciences Inc., Piscataway, N.J.). When ubiquitin conjugates of hTERT were detected, immunoprecipitation was performed with lysis buffer containing 0.1% SDS to dissociate its interacting proteins. Immunoblot analyses were performed using anti-hTERT (Santa Cruz biotechnology, Santa Cruz, Calif.), anti-V5 (Invitrogen, Carlsbad, Calif.), anti-HA, and anti-Flag antibodies.
GA-mediated protein degradation by the proteasome depends on conjugation of ubiquitin to the Hsp90 client protein (Isaacs et al. 2002; Citri et al. 2002). To determine whether hTERT is ubiquitinated in vivo prior to its degradation, H1299 cells co-transfected with Flag-tagged hTERT and HA-tagged ubiquitin constructs were treated with GA, ALLnN (a general proteasome inhibitor) or both. The immunoprecipitated products were evaluated by immunoblotting with selected probes as described in FIG. 2. […]

[2] = test system: hTERT; test: hTERT protein levels by immunoblotting in H1299 cells; format: cell-based, human
Procedure: FIG. 1. hTERT is sensitive to the Hsp90 antagonist geldanamycin. (A) Down-regulation of ectopically expressed hTERT by GA. H1299 cells transfected with Flag-hTERT or Flag-TRF1 were treated with 0.1 μM GA for the indicated times. Lysates were resolved on 8% SDS-PAGE and analyzed by immunoblotting using an anti-Flag antibody probe. Cells were pretreated with 10 μM MG132 or E-64 for 2 hours, either alone or before treatment with GA. (B) Concentration dependence of GA on hTERT. H1299 cells transfected with Flag-hTERT or hTERT-HA were treated for 2 hours with the GA concentration indicated. The hTERT polypeptides were visualized with anti-Flag or anti-HA antibodies as marked by each blot. (C) Down-regulation of endogenous hTERT by GA. H1299 cells were treated with 0.1 μM GA for the indicated times, and cell lysates were analyzed by immunoprecipitation with anti-hTERT antibody followed by immunoblotting using same antibody probe. Cells were pretreated with 10 μM MG132 for 2 hours, either alone or before treatment with GA. Molecular weight markers are shown in kilodaltons. (D) H1299 cells were treated with 0.1 μM GA for the indicated times, and cell lysates were analyzed for telomerase activity by the TRAP assay. The lane labeled LB corresponds to the negative control (lysis buffer only). ITAS represents the internal telomerase assay standard. (E) Saos-2 cells transfected with Flag-hTERT or hTERT-HA or empty vector were untreated or treated with 0.1 μM GA for 16 hours, and cell lysates were analyzed for telomerase activity using the TRAP assay.
as §1
The human lung carcinoma cell line H1299 was cultured in RPMI-1640 medium, and the human fibrosarcoma cell line HT1080 was cultured in Dulbecco's modified Eagle's medium supplemented with 10% fetal bovine serum, 100 units/ml penicillin, and 100 μg/ml streptomycin in 5% CO2 at 37° C. The human osteosarcoma cell line Saos-2 was maintained in McCoy's 5A medium containing 15% fetal bovine serum, 100 units/ml penicillin, and 100 μg/ml streptomycin. To establish cell lines stably expressing MKRN1, the MKRN1-V5 construct was transfected into HT1080 cells using Lipofectamine Plus (Invitrogen, Carlsbad, Calif.) according to the manufacturer's instructions. As a control, HT1080 cells were also stably transfected with an empty vector. Multiple independent single clones were isolated and checked for protein expression by immunoblotting with anti-V5 antibody.
H1299 cells were transiently transfected with the expression vectors indicated in the figure legends using TransFast transfection reagent (Promega, Madison, Wis.) according to the manufacturer's instructions. Cells were lysed with buffer containing 0.5% NP-40, 50 mM Tris-HCl (pH 7.5), 150 mM NaCl, 2 mM phenyl methylsulphonyl fluoride. […]

SMILES | hTERT-ubiquitin conjugates without MKRN1 co-expression ([1]; H1299 Flag-hTERT plus HA-ubiquitin, 10 μM MG132, 45-60 minutes) | ubiquitin conjugates of hTERT ([1]; H1299 co-transfected with Flag-hTERT, HA-ubiquitin, MKRN1-V5, 10 μM MG132, 2 hours) | effect on GA-induced degradation of endogenous hTERT ([2]; H1299, 10 μM MG132 pretreatment 2 hours before GA) | effect on GA-induced down-regulation of hTERT ([2]; H1299 Flag-hTERT, 10 μM pretreatment 2 hours, then GA 4 hours) | hTERT expression levels, inhibitor alone ([2]; H1299 Flag-hTERT, 10 μM, absence of GA, relative to untreated controls) | polyubiquitinated hTERT forms in absence of GA ([1]; H1299, 10 μg/ml ALLnN, 2 hours, FIG. 2C) | ubiquitinated hTERT ([1]; H1299 Flag-hTERT and HA-ubiquitin, 10 μg/ml ALLnN, 2 hours, FIG. 2A) | effect on GA-induced decrease of hTERT levels ([2]; H1299 Flag-hTERT and HA-ubiquitin, 10 μg/ml ALLnN plus 0.1 μM GA, 2 hours) | hTERT levels ([2]; H1299 co-transfected with Flag-hTERT and HA-ubiquitin, 2 hours, single agent (0.1 μM GA or 10 μg/ml ALLnN))
CC(C)C[C@@H](C=O)NC(=O)[C@H](CC(C)C)NC(=O)[C@H](CC(C)C)NC(=O)OCc1ccccc1 [MG132] (Cbz-Leu-Leu-Leu-aldehyde) | low levels were detected | easily detected | rescued | rescued | did not cause a significant change | – | – | – | –
CCCC[C@@H](C=O)NC(=O)[C@H](CC(C)C)NC(=O)[C@H](CC(C)C)NC(C)=O [ALLnN] (Ac-Leu-Leu-[Nle]-aldehyde) | – | – | – | – | – | significantly elevated | dramatically elevated | reversed this trend | did not affect

— patent US7901906B2, “Targeting of MKRN1 for identifying cancer treatment agents” (University of Central Florida Research Foundation, Inc., priority 2006, dated 2011)
